Source: patent publication US20070141619A1, “DRUG RESISTANCE-ASSOCIATED GENE AND USE THEREOF” (BANYU PHARMACEUTICAL CO., Ltd., priority 2000, published 2007)

Experiments:
[1] = test system: LY/NR2; assay: SRB drug sensitivity, Compound-A-resistant LY/NR2; assay type: cell-based, mouse; settings: for RR: Relative Resistance: IC50 LY/NR2 divided by IC50 LY; for IC50: Mus musculus, LY/NR2, SRB, 72 hours with agent
Description: An emerging colony was isolated as described above and designated as LY/NR2.

[2] = test system: HCT116; assay: SRB drug sensitivity, HCT116 parental cells; assay type: cell-based; settings: Homo sapiens, HCT-116, 72 hours with agent
[3] = test system: LY/NR1; assay: SRB drug sensitivity, Compound-A-resistant LY/NR1; assay type: cell-based, mouse; settings: for RR: Relative Resistance: IC50 LY/NR1 divided by IC50 LY; for IC50: Mus musculus, LY/NR1, SRB, 72 hours with agent
Description: A colony that grew under these conditions was isolated using a cloning ring (Asahi Techno Glass Corporation) and designated as LY/NR1.

[4] = test system: HCT116/NR1; assay: SRB drug sensitivity, Compound-A-resistant HCT116/NR1; assay type: cell-based, human; settings: for IC50: Homo sapiens, HCT-116, HCT116/NR1, SRB, 72 hours with agent; for RR: Relative Resistance: IC50 HCT116/NR1 divided by IC50 HCT116
Description: An emerging colony was isolated and designated as HCT116/NR1.

[5] = test system: PC-13/ABCG2-2; assay: SRB drug sensitivity, PC-13 transfected with ABCG2 (clone 2); assay type: cell-based, human; settings: IC50 PC-13/ABCG2-2 divided by IC50 of vector cells
Experimental: (§1) Test cells in the logarithmic growth phase were dispensed into wells of 96-well plate at 1×10^3 cells/well. After subculture for 24 hours in a CO2 incubator, a serial diluted agent was added to each well. After further incubation for 72 hours, the cells were fixed with trichloroacetic acid (TCA) and the proteins in the cells were stained by 0.4% sulforhodamine B solution. The samples were eluted by 10 mM Tris-HCl for 1 hour, and each well was measured at 560 nm with a 450 nm reference, by a SPECTRAmax 250 plate reader (Molecular Devices Corp.).
(§2) PC-13 cells were transfected with the ABCG2 expression plasmids using Effectene Transfection Reagent (QIAGEN). The experiment was performed according to the attached procedural manual. As a control experiment, other PC-13 cells were transfected with vector alone without the ABCG2 sequence. The two experiments were conducted simultaneously. Two days after the transfection, the original media were replaced with selection media containing 0.2 mg/ml of Geneticin (GIBCO BRL). By culture for a long time under this condition, stable transfectant clones with the introduced plasmids were selected. Two weeks from the transfection, emerging colonies were picked and expression of ABCG2 in the cells was examined by Northern Blot analysis.

[6] = test system: ABCG2; assay: as above; assay type: cell-based, human; settings: human; PC-13/ABCG2-2; average ± standard error of three independent experiments
Experimental: as §1, §2

[7] = test system: PC-13 cell lines with introduced ABCG2; assay: SRB drug sensitivity, PC-13 cell lines with introduced ABCG2 (stated jointly); assay type: cell-based, human; settings: PC-13 cell lines with introduced ABCG2, versus vector alone
Experimental: as §1, §2

[8] = test system: PC13/NR13; assay: SRB drug sensitivity, Compound-A-resistant PC-13/NR13; assay type: cell-based, human; settings: for IC50: Homo sapiens, PC-13, PC13/NR13, SRB, 72 hours with agent; for RR: Relative Resistance: IC50 PC13/NR13 divided by IC50 PC13
[9] = test system: LY; assay: SRB drug sensitivity, LY parental fibroblasts; assay type: cell-based; settings: Mus musculus, Fibroblast, 72 hours with agent
[10] = test system: HeLa#7; assay: SRB drug sensitivity, spontaneously resistant HeLa#7; assay type: cell-based, human; settings: for IC50: Homo sapiens, HeLa#7, SRB, 72 hours with agent; for RR: Relative Resistance: IC50 HeLa#7 divided by IC50 HeLaS3
[11] = test system: PC13; assay: SRB drug sensitivity, PC-13 parental cells; assay type: cell-based; settings: Homo sapiens, 72 hours with agent
[12] = test system: PC-13/Vector; assay: SRB drug sensitivity, PC-13 transfected with vector alone; assay type: cell-based; settings: Homo sapiens, average ± standard error of three independent experiments
Experimental: as §1, §2

[13] = test system: PC-13/ABCG2-3; assay: SRB drug sensitivity, PC-13 transfected with ABCG2 (clone 3); assay type: cell-based, human; settings: IC50 PC-13/ABCG2-3 divided by IC50 of vector cells
Experimental: as §1, §2

[14] = test system: ABCG2; assay: as above; assay type: cell-based, human; settings: human; PC-13/ABCG2-3; average ± standard error of three independent experiments
Experimental: as §1, §2

[15] = test system: HeLaS3; assay: SRB drug sensitivity, HeLaS3 (Compound-A-sensitive); assay type: cell-based; settings: Homo sapiens, HeLa S3, 72 hours with agent
[16] = test system: MCF-7/R7; assay: SRB drug sensitivity, MCF-7 with introduced ABCG2 of the present invention; assay type: cell-based, human; settings: MCF-7/R7 (ABCG2 of the present invention), FIG. 6
Experimental: (§3) The full length human ABCG2 cDNA of the present invention prepared in Example 5 was inserted into a plasmid for expression in mammalian cells, followed by transfection of human breast cancer cells, MCF-7 cells, with the ABCG2 expression plasmid using Effectene Transfection Reagent (QIAGEN). Likewise, human breast cancer cells, MCF-7 cells, were transfected with a plasmid including the ABCG2-482T cDNA prepared in Example 10. The experiments were carried out according to an attached procedural manual. As a control experiment, the MCF-7 cells were also transfected with vector alone. The three experiments were conducted simultaneously. Two days from the transfection, the original media were replaced with selective media containing 900 μg/ml of Geneticin (GIBCO BRL). By culture over a prolonged term under this condition, stable transfectant clones with introduced plasmid were selected. Two to three weeks from the transfection, emerging colonies were picked and the expression of ABCG2 in the cells was examined by Northern Blot analysis. Northern Blot analysis was performed as described in Example 4: 8 μg of total RNA prepared from each clone using RNeasy mini kit (QIAGEN) was separated on a formaldehyde denatured agarose gel, followed by analysis using the human ABCG2 cDNA fragment of the present invention as a probe.
(§4) The drug sensitivity of the stable transfectant clones which were established from MCF-7 cells with introduced ABCG2- or ABCG2-482T-expression plasmid, was measured using SRB method as described in Example 2 and the sensitivity of each transfectant to drugs was shown as a relative resistance to the cells with introduced vector alone (FIG. 6).

[17] = test system: MCF-7/T8; assay: SRB drug sensitivity, MCF-7 with introduced ABCG2-482T; assay type: cell-based, human; settings: MCF-7/T8 (ABCG2-482T)
Experimental: as §3, §4

IC50 [4] [nM] | IC50 at 72 h [6] [nM] | IC50 [10] [nM] | IC50 at 72 h [14] [nM] | IC50 [15] [nM] | SMILES | RR: Relative Resistance [1] | IC50 [1] [nM] | IC50 [2] [nM] | RR: Relative Resistance [3] | IC50 [3] [nM] | RR: Relative Resistance [4] | resistance of cells in which ABCG2 was forcedly expressed [7] | IC50 [8] [nM] | RR: Relative Resistance [8] | IC50 [9] [nM] | RR: Relative Resistance [10] | IC50 [11] [nM] | IC50 [12] [nM] | also measured
– | – | – | – | – | COc1cccc2c1C(=O)c1c(O)c3c(c(O)c1C2=O)C[C@@](O)(C(C)=O)C[C@@H]3O[C@H]1C[C@H](N)[C@H](O)[C@H](C)O1 [Daunorubicin] | – | – | – | – | – | – | – | – | – | – | – | – | – | relative resistance to the cells with introduced vector alone [16]: no resistance; relative resistance to the cells with introduced vector alone ([17]; FIG. 6): 5.1 fold
59 | – | 29 | – | 35 | COc1cccc2c1C(=O)c1c(O)c3c(c(O)c1C2=O)C[C@@](O)(C(=O)CO)C[C@@H]3O[C@H]1C[C@H](N)[C@H](O)[C@H](C)O1 [Doxorubicin] | 4.5 | 190 | 25 | 1.6 | 67 | 2.3 | not resistant | 70 | 2.5 | 43 | 0.81 | 28 | – | relative resistance to the cells with introduced vector alone [16]: no resistance; relative resistance to the cells with introduced vector alone ([17]; FIG. 6, listed as Adriamycin): 9.6 fold; relative resistance to the cells with introduced vector alone ([17]; FIG. 6, listed as adriamycin): showed resistance
3400 | 460 ± 75 | 930 | 1100 ± 330 | 1200 | COc1cc([C@@H]2c3cc4c(cc3[C@@H](O[C@@H]3O[C@@H]5CO[C@@H](C)O[C@H]5[C@H](O)[C@H]3O)[C@H]3COC(=O)[C@H]23)OCO4)cc(OC)c1O [Etoposide] | 4.7 | 2000 | 1100 | 2.1 | 520 | 3.1 | did not display remarkable resistance | 3000 | 2.5 | 280 | 0.79 | 1200 | 1000 ± 290 | Rel. Res. (relative resistance) [5]: 0.46; Rel. Res. (relative resistance) [13]: 1.1
2.1 | – | 4.2 | – | 1 | CC(=O)O[C@H]1C(=O)[C@@]2(C)[C@H]([C@H](OC(=O)c3ccccc3)[C@]3(O)C[C@H](OC(=O)[C@H](O)[C@@H](NC(=O)c4ccccc4)c4ccccc4)C(C)=C1C3(C)C)[C@]1(OC(C)=O)CO[C@@H]1C[C@@H]2O [Paclitaxel] | 2.0 | 81 | 1.1 | 1.4 | 57 | 1.9 | – | 1.8 | 0.92 | 41 | 4.2 | 2 | – | –
– | 190 ± 50 | 360 | 96 ± 22 | 63 | CC[C@@]1(O)C(=O)OCc2c1cc1n(c2=O)Cc2cc3c(CN(C)C)c(O)ccc3nc2-1 [Topotecan] | – | 2900 | 34 | – | 250 | – | did not display remarkable resistance | 1100 | – | 69 | – | 75 | 210 ± 40 | –
9.3 | – | 6.9 | – | 0.7 | CC[C@]1(O)C[C@H]2CN(CCc3c([nH]c4ccccc34)[C@@](C(=O)OC)(c3cc4c(cc3OC)N(C=O)[C@H]3[C@@](O)(C(=O)OC)[C@H](OC(C)=O)[C@]5(CC)C=CCN6CC[C@]43[C@@H]65)C2)C1 [Vincristine] | 1.7 | 25 | 2 | 0.77 | 11 | 4.7 | – | 7 | 0.56 | 15 | 9.9 | 13 | – | –

SMILES | IC50 [4] [nM] | IC50 at 72 h [6] [nM] | IC50 [10] [nM] | IC50 at 72 h [14] [nM] | IC50 [15] [nM] | RR: Relative Resistance [1] | IC50 [1] [nM] | IC50 [2] [nM] | RR: Relative Resistance [3] | IC50 [3] [nM] | RR: Relative Resistance [4] | resistance of cells in which ABCG2 was forcedly expressed [7] | IC50 [8] [nM] | RR: Relative Resistance [8] | IC50 [9] [nM] | RR: Relative Resistance [10] | IC50 [11] [nM] | IC50 [12] [nM] | also measured
CC[C@@]1(O)C(=O)OCc2c1cc1n(c2=O)Cc2cc3ccccc3nc2-1 [Camptothecin] | 17 | 29 ± 5 | 38 | 52 ± 8 | 14 | 8.2 | 380 | 9.4 | 1.3 | 58 | 1.8 | did not display remarkable resistance | 29 | 0.76 | 46 | 2.7 | 38 | 43 ± 11 | Rel. Res. (relative resistance) [5]: 0.67; Rel. Res. (relative resistance) [13]: 1.2
